For the assay, the system named is HES1. Briefly: Human neural stem cell assay, Hes1 gene expression (real-time PCR). The format is cell-based. Particulars: human neural stem cells, 7 point CRC, read-out: hNSC HES1 IC50. As to the method:
Neural stem cells (NSC) were derived from embryonic stem cells using a published protocol (Yuan et al., Mar. 2, 2011, PLoS ONE, 6(3):e17540). Cells were sorted and characterized at passage 3 and were expanded. Cells were then frozen at passage 5. Cells were maintained in NSC media (DMEM/F12, N2 (1×), B27(1×) (Invitrogen), and Pen/Strep (1×) (Life Technologies) with 20 ng/ml bFGF (BD Bioscience/Corning)). On day 1, cells were plated in 96 well plates that have been previously coated with poly-ornithin and laminin, 60,000 cells/well in 100 μl of media. On day 2, spent media was removed, and 180 μl of fresh media was added to the cells. Later that same day (day 2), cells were treated with 20 μl of NSC media containing test compounds (7 point CRC). On day 3, spent media was removed and 140 μl of RLT/bME was added to the cells. RNA was extracted using the QiaCube (Qiagen®, Germantown, Md., USA) using the total RNA extraction+DNAse protocol. RNA was then reverse-transcribed to cDNA using iScript (Bio-Rad, Hercules, Calif., USA). cDNA was then used for real-time PCR analysis using iTaq Sybergreen (BioRad). Expression of Atoh1, Hes5, Hes1, Myosin7a genes was evaluated using CFX96 or CFX384 (Bio-Rad). HPRT1 was used as a reference gene. Analysis was done using Microsoft® Excel® and CBIS (ChemInnovation Software, Inc., San Diego, Calif., USA). […]
On the technique in general: Real-time PCR tracks product formation cycle by cycle.

As a reminder, the IC50 is the concentration needed to halve the response being measured. In the case of `C[C@H](OC(=O)NCC(F)(F)C(F)(F)F)C(=O)N[C@@H]1C(=O)Nc2ccccc2-c2ccccc21` [Compound I, (2,2,3,3,3-pentafluoropropyl)-carbamic acid (S)-1-((S)-6-oxo-6,7-dihydro-5H-dibenzo[b,d]azepin-7-ylcarbamoyl) ethyl ester], the IC50 came to 242 nM.

(Values after patent publication US10865188B2, “Dibenzo azepine compounds and their use in the treatment of otic diseases and disorders” (Pipeline Therapeutics, Inc., priority 2015, dated 2020).)
